Measurements taken from ChEMBL document CHEMBL1201861, “Genomics of Drug Sensitity in Cancer screening data, Wellcome Trust Sanger Institute”.

Assays:
Assay in all cases: cells
LB1047-RCC = format: functional, cell-based, Homo sapiens; settings: Homo sapiens, LB1047-RCC;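 also: inhibition of cell growth, determined with a cell viability assay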
Description: SANGER: Inhibition of human LB1047-RCC cell growth in a cell viability assay.

SNU-5 = format: functional, cell-based, Homo sapiens; settings: Homo sapiens, SNU-5;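 also: cell viability readout used to measure growth inhibition in human NCI-SNU-5 cells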
Description: SANGER: Inhibition of human NCI-SNU-5 cell growth in a cell viability assay.

MC116 = format: functional, cell-based, Homo sapiens; settings: Homo sapiens, MC116;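 also: growth inhibition of MC116 cells, read out with a cell viability assay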
Description: SANGER: Inhibition of human MC116 cell growth in a cell viability assay.

NCI-H2170 = format: functional, cell-based, Homo sapiens; settings: Homo sapiens, NCI-H2170;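 also: cell viability assay measuring growth inhibition of human NCI-H2170 cancer cells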
Description: SANGER: Inhibition of human NCI-H2170 cell growth in a cell viability assay.

HCE-4 = format: functional, cell-based, Homo sapiens; settings: Homo sapiens, HCE-4;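 also: cell viability assay measuring inhibition of growth in the human HCE-4 cell line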
Description: SANGER: Inhibition of human HCE-4 cell growth in a cell viability assay.

D-392MG = format: functional, cell-based, Homo sapiens; settings: Homo sapiens, D-392MG
A204 = format: functional, cell-based, Homo sapiens; settings: Homo sapiens, A204;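 also: growth inhibition of human A204 cells, read out with a cell viability assay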
Description: SANGER: Inhibition of human A204 cell growth in a cell viability assay.

ACHN = format: functional, cell-based, Homo sapiens; settings: Homo sapiens, ACHN;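 also: cell viability read-out used to gauge how strongly growth of human ACHN cells is suppressed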
Description: SANGER: Inhibition of human ACHN cell growth in a cell viability assay.

SK-MEL-30 = format: functional, cell-based, Homo sapiens; settings: Homo sapiens, SK-MEL-30;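 also: growth inhibition of SK-MEL-30 cells, determined with a cell viability assay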
Description: SANGER: Inhibition of human SK-MEL-30 cell growth in a cell viability assay.

M14 = format: functional, cell-based, Homo sapiens; settings: Homo sapiens, M14;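 also: growth inhibition of M14 cells, read out with a cell viability assay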
Description: SANGER: Inhibition of human M14 cell growth in a cell viability assay.

KG-1 = format: functional, cell-based, Homo sapiens; settings: Homo sapiens, KG-1;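 also: growth inhibition of KG-1 cells, read out by a cell viability assay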
Description: SANGER: Inhibition of human KG-1 cell growth in a cell viability assay.

SK-PN-DW = format: functional, cell-based, Homo sapiens; settings: Homo sapiens, SK-PN-DW;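 also: growth inhibition measured with a viability assay on these cells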
Description: SANGER: Inhibition of human SK-PN-DW cell growth in a cell viability assay.

NCI-H358 = format: functional, cell-based, Homo sapiens; settings: Homo sapiens, NCI-H358;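 also: growth inhibition of NCI-H358 human cells, read out with a cell viability assay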
Description: SANGER: Inhibition of human NCI-H358 cell growth in a cell viability assay.

RVH-421 = format: functional, cell-based, Homo sapiens; settings: Homo sapiens, RVH-421
Description: SANGER: Inhibition of human RVH-421 cell growth in a cell viability assay.

CAL-33 = format: functional, cell-based, Homo sapiens; settings: Homo sapiens, CAL-33;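 also: growth inhibition of CAL-33 cells, read out with a cell viability assay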
Description: SANGER: Inhibition of human CAL-33 cell growth in a cell viability assay.

SNB-75 = format: functional, cell-based, Homo sapiens; settings: Homo sapiens, SNB-75;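 also: cell viability assay measuring growth inhibition of human SNB-75 cells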
Description: SANGER: Inhibition of human SNB75 cell growth in a cell viability assay.

L-363 = format: functional, cell-based, Homo sapiens; settings: Homo sapiens, L-363
Description: SANGER: Inhibition of human L-363 cell growth in a cell viability assay.

CP50-MEL-B = format: functional, cell-based, Homo sapiens; settings: Homo sapiens, CP50-MEL-B;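 also: growth inhibition of the human cell line, measured with a cell viability read-out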
Description: SANGER: Inhibition of human CP50-MEL-B cell growth in a cell viability assay.

BFTC-909 = format: functional, cell-based, Homo sapiens; settings: Homo sapiens, BFTC-909
Description: SANGER: Inhibition of human BFTC-909 cell growth in a cell viability assay.

SW1463 = format: functional, cell-based, Homo sapiens; settings: Homo sapiens, SW1463;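 also: growth inhibition of SW1463 cells, determined with a cell viability assay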
Description: SANGER: Inhibition of human SW1463 cell growth in a cell viability assay.

NCI-H1623 = format: functional, cell-based, Homo sapiens; settings: Homo sapiens, NCI-H1623;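 also: cell viability assay used as the read-out for growth inhibition of NCI-H1623 cells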
Description: SANGER: Inhibition of human NCI-H1623 cell growth in a cell viability assay.

EW-13 = format: functional, cell-based, Homo sapiens; settings: Homo sapiens, EW-13;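 also: growth inhibition of EW-13 cells, read out with a cell viability assay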
Description: SANGER: Inhibition of human EW-13 cell growth in a cell viability assay.

ES7 = format: functional, cell-based, Homo sapiens; settings: Homo sapiens, ES7;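 also: growth inhibition of cultured human ES7 cells, read out as cell viability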
Description: SANGER: Inhibition of human ES7 cell growth in a cell viability assay.

MG-63 = format: functional, cell-based, Homo sapiens; settings: Homo sapiens, MG-63;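 also: growth inhibition of human MG-63 cells, read out with a cell viability assay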
Description: SANGER: Inhibition of human MG-63 cell growth in a cell viability assay.

SK-N-DZ = format: functional, cell-based, Homo sapiens; settings: Homo sapiens, SK-N-DZ;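 also: growth inhibition of the cancer cell line, read out through a viability assay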
Description: SANGER: Inhibition of human SK-N-DZ cell growth in a cell viability assay.

KALS-1 = format: functional, cell-based, Homo sapiens; settings: Homo sapiens, KALS-1;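 also: growth inhibition of KALS-1 cells, determined with a cell viability assay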
Description: SANGER: Inhibition of human KALS-1 cell growth in a cell viability assay.

NB7 = format: functional, cell-based, Homo sapiens; settings: Homo sapiens, NB7;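 also: growth inhibition of NB7 cells, read out with a cell viability assay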
Description: SANGER: Inhibition of human NB7 cell growth in a cell viability assay.

KYSE-270 = format: functional, cell-based, Homo sapiens; settings: Homo sapiens, KYSE-270;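 also: cell growth inhibition measured with a viability assay in the human KYSE-270 line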
Description: SANGER: Inhibition of human KYSE-270 cell growth in a cell viability assay.

P12-Ichikawa = format: functional, cell-based, Homo sapiens; settings: Homo sapiens, P12-Ichikawa
SNU-423 = format: functional, cell-based, Homo sapiens; settings: Homo sapiens, SNU-423
Description: SANGER: Inhibition of human SNU-423 cell growth in a cell viability assay.

A549 = format: functional, cell-based, Homo sapiens; settings: Homo sapiens, A549;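 also: growth inhibition of A549 cells, read out with a cell viability assay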
Description: SANGER: Inhibition of human A549 cell growth in a cell viability assay.

NCI-H2122 = format: functional, cell-based, Homo sapiens; settings: Homo sapiens, NCI-H2122;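 also: growth inhibition of the cells, read out with a cell viability assay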
Description: SANGER: Inhibition of human NCI-H2122 cell growth in a cell viability assay.

LB771-HNC = format: functional, cell-based, Homo sapiens; settings: Homo sapiens, LB771-HNC;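 also: growth inhibition of LB771-HNC human cells, read out with a cell viability assay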
Description: SANGER: Inhibition of human LB771-HNC cell growth in a cell viability assay.

COLO-678 = format: functional, cell-based, Homo sapiens; settings: Homo sapiens, COLO-678
Description: SANGER: Inhibition of human COLO-678 cell growth in a cell viability assay.

HuP-T4 = format: functional, cell-based, Homo sapiens; settings: Homo sapiens, HuP-T4;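 also: cell viability assay measuring how much HuP-T4 cell growth is inhibited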
Description: SANGER: Inhibition of human HuP-T4 cell growth in a cell viability assay.

KINGS-1 = format: functional, cell-based, Homo sapiens; settings: Homo sapiens, KINGS-1;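 also: cell viability assay measuring suppression of KINGS-1 cell growth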
Description: SANGER: Inhibition of human KINGS-1 cell growth in a cell viability assay.

NCI-H441 = format: functional, cell-based, Homo sapiens; settings: Homo sapiens, NCI-H441;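 also: growth inhibition of NCI-H441 cells, read out with a cell viability assay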
Description: SANGER: Inhibition of human NCI-H441 cell growth in a cell viability assay.

SK-HEP1 = format: functional, cell-based, Homo sapiens, SK-HEP-1; settings: Homo sapiens, SK-HEP1;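 also: cell viability readout used to quantify reduction in proliferation of human SK-HEP-1 cells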
Description: SANGER: Inhibition of human SK-HEP-1 cell growth in a cell viability assay.

BCPAP = format: functional, cell-based, Homo sapiens; settings: Homo sapiens, BCPAP;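 also: growth inhibition of BCPAP cells, read out in a cell viability assay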
Description: SANGER: Inhibition of human BCPAP cell growth in a cell viability assay.

UACC-62 = format: functional, cell-based, Homo sapiens; settings: Homo sapiens, UACC-62;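 also: growth inhibition of human UACC-62 cells, read out by a cell viability assay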
Description: SANGER: Inhibition of human UACC-62 cell growth in a cell viability assay.

C8166 = format: functional, cell-based, Homo sapiens; settings: Homo sapiens, C8166;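 also: growth inhibition of human C8166 cells measured by a cell viability assay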
Description: SANGER: Inhibition of human C8166 cell growth in a cell viability assay.

SMILES: Cc1cn(-c2cc(NC(=O)c3ccc(C)c(Nc4nccc(-c5cccnc5)n4)c3)cc(C(F)(F)F)c2)cn1 [NILOTINIB]
- IC50 (LB1047-RCC): > 2 µM
- IC50 (SNU-5): > 2 µM
- IC50 (MC116): > 2 µM
- IC50 (NCI-H2170): > 2 µM
- IC50 (HCE-4): > 2 µM
- IC50 (D-392MG): > 2 µM
- IC50 (A204): 1.57 µM
- IC50 (ACHN): > 2 µM
- IC50 (SK-MEL-30): > 2 µM
- IC50 (M14): > 2 µM
- IC50 (KG-1): > 2 µM
- IC50 (SK-PN-DW): > 2 µM
- IC50 (NCI-H358): > 2 µM
- IC50 (RVH-421): > 2 µM
- IC50 (CAL-33): > 2 µM
- IC50 (SNB-75): > 2 µM
- IC50 (L-363): > 2 µM
- IC50 (CP50-MEL-B): > 2 µM
- IC50 (BFTC-909): > 2 µM
- IC50 (SW1463): > 2 µM
- IC50 (NCI-H1623): > 2 µM
- IC50 (EW-13): > 2 µM
- IC50 (ES7): > 2 µM
- IC50 (MG-63): > 2 µM
- IC50 (SK-N-DZ): > 2 µM
- IC50 (KALS-1): > 2 µM
- IC50 (NB7): 0.134 µM
- IC50 (KYSE-270): > 2 µM
- IC50 (P12-Ichikawa): > 2 µM
- IC50 (SNU-423): > 2 µM
- IC50 (A549): > 2 µM
- IC50 (NCI-H2122): > 2 µM
- IC50 (LB771-HNC): > 2 µM
- IC50 (COLO-678): > 2 µM
- IC50 (HuP-T4): > 2 µM
- IC50 (KINGS-1): > 2 µM
- IC50 (NCI-H441): > 2 µM
- IC50 (SK-HEP1): > 2 µM
- IC50 (BCPAP): > 2 µM
- IC50 (UACC-62): > 2 µM
- IC50 (C8166): > 2 µM

SMILES: CCN(CC)CCCCNc1ncc2cc(-c3cc(OC)cc(OC)c3)c(NC(=O)NC(C)(C)C)nc2n1 [PD-173074]
- IC50 (LB1047-RCC): > 2 µM
- IC50 (SNU-5): > 2 µM
- IC50 (MC116): > 2 µM
- IC50 (NCI-H2170): > 2 µM
- IC50 (HCE-4): > 2 µM
- IC50 (D-392MG): > 2 µM
- IC50 (A204): > 2 µM
- IC50 (ACHN): > 2 µM
- IC50 (SK-MEL-30): > 2 µM
- IC50 (M14): > 2 µM
- IC50 (KG-1): 0.0513 µM
- IC50 (SK-PN-DW): > 2 µM
- IC50 (NCI-H358): > 2 µM
- IC50 (RVH-421): > 2 µM
- IC50 (CAL-33): > 2 µM
- IC50 (SNB-75): > 2 µM
- IC50 (L-363): > 2 µM
- IC50 (CP50-MEL-B): > 2 µM
- IC50 (BFTC-909): > 2 µM
- IC50 (SW1463): > 2 µM
- IC50 (NCI-H1623): > 2 µM
- IC50 (EW-13): > 2 µM
- IC50 (ES7): > 2 µM
- IC50 (MG-63): > 2 µM
- IC50 (SK-N-DZ): > 2 µM
- IC50 (KALS-1): > 2 µM
- IC50 (NB7): > 2 µM
- IC50 (KYSE-270): > 2 µM
- IC50 (P12-Ichikawa): > 2 µM
- IC50 (SNU-423): > 2 µM
- IC50 (A549): > 2 µM
- IC50 (NCI-H2122): > 2 µM
- IC50 (LB771-HNC): > 2 µM
- IC50 (COLO-678): > 2 µM
- IC50 (HuP-T4): > 2 µM
- IC50 (KINGS-1): > 2 µM
- IC50 (NCI-H441): > 2 µM
- IC50 (SK-HEP1): > 2 µM
- IC50 (BCPAP): > 2 µM
- IC50 (UACC-62): > 2 µM
- IC50 (C8166): > 2 µM

SMILES: CO[C@H]1C[C@@H]2CC[C@@H](C)[C@@](O)(O2)C(=O)C(=O)N2CCCC[C@H]2C(=O)O[C@H]([C@H](C)C[C@@H]2CC[C@@H](OC(=O)C(C)(CO)CO)[C@H](OC)C2)CC(=O)[C@H](C)/C=C(\C)[C@@H](O)[C@@H](OC)C(=O)[C@H](C)C[C@H](C)/C=C/C=C/C=C/1C [TEMSIROLIMUS]
- IC50 (LB1047-RCC): 0.0631 µM
- IC50 (SNU-5): > 0.2 µM
- IC50 (MC116): 0.0255 µM
- IC50 (NCI-H2170): > 0.2 µM
- IC50 (HCE-4): > 0.2 µM
- IC50 (D-392MG): > 0.2 µM
- IC50 (A204): 0.0389 µM
- IC50 (ACHN): > 0.2 µM
- IC50 (SK-MEL-30): > 0.2 µM
- IC50 (M14): > 0.2 µM
- IC50 (KG-1): 0.0129 µM
- IC50 (SK-PN-DW): > 0.2 µM
- IC50 (NCI-H358): 0.131 µM
- IC50 (RVH-421): 0.187 µM
- IC50 (CAL-33): > 0.2 µM
- IC50 (SNB-75): > 0.2 µM
- IC50 (L-363): 0.000242 µM
- IC50 (CP50-MEL-B): > 0.2 µM
- IC50 (BFTC-909): > 0.2 µM
- IC50 (SW1463): > 0.2 µM
- IC50 (NCI-H1623): > 0.2 µM
- IC50 (EW-13): 0.0145 µM
- IC50 (ES7): 0.0859 µM
- IC50 (MG-63): 0.134 µM
- IC50 (SK-N-DZ): > 0.2 µM
- IC50 (KALS-1): 0.149 µM
- IC50 (NB7): 0.0179 µM
- IC50 (KYSE-270): 0.164 µM
- IC50 (P12-Ichikawa): 0.013 µM
- IC50 (SNU-423): 0.173 µM
- IC50 (A549): 0.0202 µM
- IC50 (NCI-H2122): > 0.2 µM
- IC50 (LB771-HNC): > 0.2 µM
- IC50 (COLO-678): > 0.2 µM
- IC50 (HuP-T4): > 0.2 µM
- IC50 (KINGS-1): > 0.2 µM
- IC50 (NCI-H441): > 0.2 µM
- IC50 (SK-HEP1): > 0.2 µM
- IC50 (BCPAP): 0.0585 µM
- IC50 (UACC-62): > 0.2 µM
- IC50 (C8166): > 0.2 µM
